Patent US11407719B2, “Anti-inflammatory agents” (Resverlogix Corp., priority 2009, dated 2022)

Legend:
[1] = system: hIL-6 mRNA; experiment: Quantification of hIL-6 mRNA; type: cell-based, human; parameters: key: Active: an active compound is one that causes a ≥20% inhibition in IL-6 mRNA at a concentration less than or equal to 10 μM; conditions: IL-6 mRNA by real-time PCR; differentiated U937 cells, 1 h pretreatment, lipopolysaccharide stimulation 3 h; concentration ≤10 μM
Procedure: In this example, […] in tissue culture cells was quantitated to measure the transcriptional inhibition of hIL-6 when treated with a compound of the invention.
A human leukemic monocyte lymphoma cell line (U937) was plated (3.2×10^5 cells per well) in a 96-well plate in 100 μL RPMI-1640, and differentiated for 3 days prior to the addition of the compound of interest. The cells were pretreated for 1 h with the test compound prior to stimulation with lipolysaccharide from Escherichia coli. The cells were incubated at 37° C. for 3 h before the cells were harvested. At time of harvest, the spent media was removed from the cells and the cells were rinsed in 200 μL PBS. Cell lysis solution (70 μL) was added the cells in each well and incubated for 5-10 min at room temperature, to allow for complete cell lysis and detachment. mRNA was then prepared using the “mRNA Catcher PLUS plate” (Invitrogen), according to the protocol supplied. After the last wash, as much wash buffer as possible was aspirated without allowing the wells to dry. Elution buffer (E3, 70 μL) was then added to each well. mRNA was then eluted by incubating the mRNA Catcher PLUS plate with Elution Buffer for 5 min at 68° C. and then immediately placing the plate on ice.
(§1) The eluted mRNA isolated was then used in a one-step quantitative real-time PCR reaction, using components of the Ultra Sense Kit together with Applied Biosystems primer-probe mixes. Real-time PCR data was analyzed, normalizing the Ct values for hIL-6 to an internal control, prior to determining the fold induction of each unknown sample, relative to the control.

[2] = system: VCAM-1 mRNA; experiment: Quantification of hVCAM mRNA; type: cell-based, human; parameters: key: Active: an active compound is one that causes a ≥20% inhibition in VCAM-1 mRNA at a concentration less than or equal to 10 μM; -1 mRNA at a concentration less than or equal to 10 μM; conditions: VCAM-1 mRNA by real-time PCR; HUVECs, 1 h pretreatment, tumor necrosis factor-α stimulation 24 h; concentration ≤10 μM
Procedure: In this example, […] in tissue culture cells was quantitated to measure the transcriptional inhibition of hVCAM when treated with a compound of the invention.
Human umbilical vein endothelial cells (HUVECs) were plated in a 96-well plate (4.0×10^3 cells/well) in 100 μL EGM media and incubated for 24 h prior to the addition of the compound of interest. The cells were pretreated for 1 h with the test compound prior to stimulation with tumor necrosis factor-α. The cells were incubated for an additional 24 h before the cells were harvested. At time of harvest, the spent media was removed from the HUVECs and rinsed in 200 μL PBS. Cell lysis solution (70 μL) was then added the cells in each well and incubated for ˜5-10 min at room temperature, to allow for complete cell lysis and detachment. mRNA was then prepared using the “mRNA Catcher PLUS plate” (Invitrogen), according to the protocol supplied. After the last wash, as much wash buffer as possible was aspirated without allowing the wells to dry. Elution buffer (E3, 70 μL) was then added to each well. mRNA was then eluted by incubating the mRNA Catcher PLUS plate with elution buffer for 5 min at 68° C. and then immediately placing the plate on ice.
as §1, with “mRNA so” for “mRNA”, “hVCAM” for “hIL-6”

SMILES | Inhibition of IL-6 expression [1] | Inhibition of VCAM-1 expression [2]
COc1cc(OC)c2c(=O)[nH]c(-c3cc(C)c(OCCN4C(=O)CCC4=O)c(C)c3)nc2c1 [1-(2-(4-(5,7-Dimethoxy-4-oxo-3,4-dihydroquinazolin-2-yl)-2,6-dimethylphenoxy)ethyl)pyrrolidine-2,5-dione] | Active | Active
COCCOc1cc(OC)cc2nc(-c3cc(C)nc(C)c3)[nH]c(=O)c12 [2-(2,6-Dimethylpyridin-4-yl)-7-methoxy-5-(2-methoxyethoxy)quinazolin-4(3H)-one] | Active | Inactive
COc1cc(OC)c2c(=O)[nH]c(-c3cc(C)c(OCCN4C(=O)c5ccccc5C4=O)c(C)c3)nc2c1 [2-(2-(4-(5,7-dimethoxy-4-oxo-3,4-dihydroquinazolin-2-yl)-2,6-dimethylphenoxy)ethyl)isoindoline-1,3-dione] | Active | Active
COc1cc(OC)c2c(=O)[nH]c(-c3ccc4[nH]c(CN(C)C)cc4c3)nc2c1 [2-(2-((Dimethylamino)methyl)-1H-indol-5-yl)-5,7-dimethoxyquinazolin-4(3H)-one] | Active | Active
COc1cc(OC)c2c(=O)[nH]c(-c3cc(C)c(OCCN4CCCCC4)c(C)c3)nc2c1 [2-(3,5-Dimethyl-4-(2-(piperidin-1-yl)ethoxy)phenyl)-5,7-dimethoxyquinazolin-4(3H)-one] | Active | Active
Cc1cc(-c2nc3cc(F)cc(F)c3c(=O)[nH]2)cc(C)c1OCCN1CCCC1 [2-(3,5-Dimethyl-4-(2-(pyrrolidin-1-yl)ethoxy)phenyl)-5,7-difluoroquinazolin-4(3H)-one] | Active | Active
Cc1cc(-c2nc3cc(F)cc(N4CCCC4)c3c(=O)[nH]2)cc(C)c1OCCN1CCCC1 [2-(3,5-Dimethyl-4-(2-(pyrrolidin-1-yl)ethoxy)phenyl)-7-fluoro-5-(pyrrolidin-1-yl)quinazolin-4(3H)-one] | Active | Active
COc1cc(OC)cc(-c2nc3cc(OC)cc(OC)c3c(=O)[nH]2)c1 [2-(3,5-dimethoxyphenyl)-5,7-dimethoxyquinazolin-4(3H)-one] | Active | Active
COc1cc(OC)c2c(=O)[nH]c(-c3cc(C)c(OCCN4CCCC4)c(C)c3)nc2c1 [2-(3,5-dimethyl-4-(2-(pyrrolidin-1-yl)ethoxy)phenyl)-5,7-dimethoxyquinazolin-4(3H)-one] | Active | Active
COc1cc(OC)c2c(=O)[nH]c(-c3cc(C)c(OCCN4CCOCC4)c(C)c3)nc2c1 [2-(3,5-dimethyl-4-(2-morpholinoethoxy)phenyl)-5,7-dimethoxyquinazolin-4(3H)-one] | Active | Active
Cc1cc(-c2nc3ccccc3c(=O)[nH]2)cc(C)c1OCCN1CCOCC1 [2-(3,5-dimethyl-4-(2-morpholinoethoxy)phenyl)quinazolin-4(3H)-one] | Active | Active
COc1cc(OC)c2c(=O)[nH]c(-c3ccc(N4CCCNCC4)cc3)nc2c1 [2-(4-(1,4-Diazepan-1-yl)phenyl)-5,7-dimethoxyquinazolin-4(3H)-one] | Active | Active
COc1cc(OC)c2c(=O)[nH]c(-c3cc(C)c(OCCN4Cc5ccccc5C4)c(C)c3)nc2c1 [2-(4-(2-(Isoindolin-2-yl)ethoxy)-3,5-dimethylphenyl)-5,7-dimethoxyquinazolin-4(3H)-one] | Active | Active
O=c1[nH]c(-c2ccc(N3CCN(CC(F)(F)F)CC3)cc2)nc2ccccc12 [2-(4-(4-(2,2,2-Trifluoroethyl)piperazin-1-yl)phenyl)quinazolin-4(3H)-one] | Active | Inactive
COc1cc(OC)c2c(=O)[nH]c(-c3ccc(N4CCN(C(=O)c5ccccn5)CC4)cc3)nc2c1 [5,7-Dimethoxy-2-(4-(4-picolinoylpiperazin-1-yl)phenyl)quinazolin-4(3H)-one] | Active | 
COc1cc(OC)c2c(=O)[nH]c(-c3ccc(Nc4ccc(C)cc4)cc3)nc2c1 [5,7-Dimethoxy-2-(4-(p-tolylamino)phenyl)quinazolin-4(3H)-one] | Active | 
COc1cc(OC)c2c(=O)[nH]c(-c3ccc(C4CCNCC4)cc3)nc2c1 [5,7-Dimethoxy-2-(4-(piperidin-4-yl)phenyl)quinazolin-4(3H)-one] | Active | 
COc1cc(OC)c2c(=O)[nH]c(-c3ccc(Nc4ccncc4)cc3)nc2c1 [5,7-Dimethoxy-2-(4-(pyridin-4-ylamino)phenyl)quinazolin-4(3H)-one] | Active | 
COc1cc(OC)c2c(=O)[nH]c(-c3ccc(CN4CCN(C)CC4)cc3)nc2c1 [5,7-dimethoxy-2-(4-((4-methylpiperazin-1-yl)methyl)phenyl)quinazolin-4(3H)-one] | Active | 
COc1cc(OC)c2c(=O)[nH]c(-c3ccc(CN4CCOCC4)cc3)nc2c1 [5,7-dimethoxy-2-(4-(morpholinomethyl)phenyl)quinazolin-4(3H)-one] | Active | 
COc1cc(OC)c2c(=O)[nH]c(-c3ccc(N4CCOCC4)cc3)nc2c1 [5,7-dimethoxy-2-(4-morpholinophenyl)quinazolin-4(3H)-one] | Active | 
CC(C)N1CCN(c2ccc(-c3nc4cccc(Cl)c4c(=O)[nH]3)cc2)CC1 [5-Chloro-2-(4-(4-isopropylpiperazin-1-yl)phenyl)quinazolin-4(3H)-one] | Active | 
COc1cc(OC)c2c(=O)[nH]c(-c3ccc(CN4CCC(N(C(C)=O)C(C)C)CC4)cc3)nc2c1 [N-(1-(4-(5,7-Dimethoxy-4-oxo-3,4-dihydroquinazolin-2-yl)benzyl)piperidin-4-yl)-N-isopropylacetamide] | Active | 
COc1cc(OC)c2c(=O)[nH]c(-c3ccc(N4CCC(NS(C)(=O)=O)CC4)cc3)nc2c1 [N-(1-(4-(5,7-Dimethoxy-4-oxo-3,4-dihydroquinazolin-2-yl)phenyl)piperidin-4-yl)methanesulfonamide] | Active | 
COc1cc(OC)c2c(=O)[nH]c(-c3ccc(N4CCC(N(C(C)=O)C(C)C)CC4)cc3)nc2c1 [N-(1-(4-(5,7-dimethoxy-4-oxo-3,4-dihydroquinazolin-2-yl)phenyl)piperidin-4-yl)-N-isopropylacetamide] | Active | 
COc1cc(OC)c2c(=O)[nH]c(-c3ccc(NS(C)(=O)=O)cc3)nc2c1 [N-(4-(5,7-Dimethoxy-4-oxo-3,4-dihydroquinazolin-2-yl)phenyl)methanesulfonamide] | Active | 
COc1cc(OC)c2c(=O)[nH]c(-c3ccc(N4CCC(N(Cc5ccccc5)C(C)=O)CC4)nc3)nc2c1 [N-Benzyl-N-(1-(5-(5,7-dimethoxy-4-oxo-3,4-dihydroquinazolin-2-yl)pyridin-2-yl)piperidin-4-yl)acetamide] | Active | 
COc1cc(OC)c2c(=O)[nH]c(-c3ccc(C4CCN(C(=O)OC(C)(C)C)CC4)cc3)nc2c1 [Tert-butyl 4-(4-(5,7-dimethoxy-4-oxo-3,4-dihydroquinazolin-2-yl)phenyl)piperidine-1-carboxylate] | Active | 
